Experimental data as given in PubChem BioAssay AID334 (DTP/NCI, 2004).
“And” between values parts separate entries of the source, which are not always exact repeats. Equal values may be shown once. Toxic doses and inconclusive results are not listed.

System: CD2F1 mice, intracerebral P388 leukemia, median survival T/C%
Assay: NCI In Vivo Anticancer Drug Screen. Data for tumor model P388 Leukemia (intracerebral) in CD2F1 (CDF1) mice
Settings: endpoint: median survival time, higher = longer survival
Method: The antitumor activity of compounds was measured in mice bearing transplantable tumors. Survival or tumor size were measured and the results are expressed as the measurement made in the treated group (T) divided by the measurement made in the vehicle treated control group (C). The tumor model used in this assay is P388 Leukemia (intracerebral) in CD2F1 (CDF1) mice

## CN(Cc1cnc2nc(N)nc(N)c2n1)c1ccc(C(=O)N[C@@H](CCC(=O)O)C(=O)O)cc1
dose: 0.38 mg/kg/injection, schedule: Q01DX009 (ip), vehicle: olive oil, sesame oil, peanut oil
  T/C: 110 % of control
dose: 0.38 mg/kg/injection, schedule: Q01DX009 (ip), vehicle: saline
  T/C: 110 % of control
dose: 0.75 mg/kg/injection, schedule: Q01DX009 (ip), vehicle: sodium bicarbonate
  T/C: 112 % of control
dose: 0.75 mg/kg/injection, schedule: Q01DX009 (ip), vehicle: suspension in saline
  T/C: 123 % of control and 106 % of control
dose: 1.2 mg/kg/injection, schedule: Q04DX003 (ip), vehicle: saline
  T/C: 105 % of control
dose: 1.5 mg/kg/injection, schedule: Q01DX009 (ip), vehicle: sodium bicarbonate
  T/C: 112 % of control
dose: 1.5 mg/kg/injection, schedule: Q01DX009 (ip), vehicle: suspension in saline
  T/C: 96 % of control and 100 % of control
dose: 2.3 mg/kg/injection, schedule: Q01DX009 (ip), vehicle: sodium bicarbonate
  T/C: 112 % of control
dose: 2.3 mg/kg/injection, schedule: Q01DX009 (ip), vehicle: suspension in saline
  T/C: 113 % of control and 103 % of control
dose: 2.3 mg/kg/injection, schedule: Q04DX003 (ip), vehicle: saline
  T/C: 100 % of control
dose: 3.4 mg/kg/injection, schedule: Q01DX009 (ip), vehicle: sodium bicarbonate
  T/C: 116 % of control
dose: 3.4 mg/kg/injection, schedule: Q01DX009 (ip), vehicle: suspension in saline
  T/C: 120 % of control and 122 % of control
dose: 4.6 mg/kg/injection, schedule: Q04DX003 (ip), vehicle: saline
  T/C: 110 % of control
dose: 9.2 mg/kg/injection, schedule: Q04DX003 (ip), vehicle: saline
  T/C: 100 % of control
dose: 18.4 mg/kg/injection, schedule: Q04DX003 (ip), vehicle: saline
  T/C: 115 % of control
dose: 36.8 mg/kg/injection, schedule: Q04DX003 (ip), vehicle: saline
  T/C: 95 % of control

## CCCCCc1cc(O)c2c(c1)OC(C)(C)[C@@H]1CCC(C)=C[C@@H]21
dose: 2.75 mg/kg/injection, schedule: Q01DX005 (iv), vehicle: other
  T/C: 105 % of control
dose: 5.5 mg/kg/injection, schedule: Q01DX005 (iv), vehicle: other
  T/C: 101 % of control
dose: 11.0 mg/kg/injection, schedule: Q01DX005 (iv), vehicle: other
  T/C: 103 % of control
dose: 22.0 mg/kg/injection, schedule: Q01DX005 (iv), vehicle: other
  T/C: 104 % of control
dose: 44.0 mg/kg/injection, schedule: Q01DX005 (iv), vehicle: other
  T/C: 101 % of control

## Cc1cc(OCc2nc(N)nc(N)c2-c2ccc(Cl)c(Cl)c2)ccc1NS(=O)(=O)c1cccc(S(=O)(=O)F)c1
dose: 117.0 mg/kg/injection, schedule: Q04DX003 (ip), vehicle: saline
  T/C: 100 % of control
dose: 176.0 mg/kg/injection, schedule: Q04DX003 (ip), vehicle: saline
  T/C: 100 % of control
dose: 264.0 mg/kg/injection, schedule: Q04DX003 (ip), vehicle: saline
  T/C: 111 % of control
dose: 400.0 mg/kg/injection, schedule: Q04DX003 (ip), vehicle: saline
  T/C: 111 % of control

## CC(C)=CCC1=C(O)c2ccccc2C(=O)C1=O
dose: 32.0 mg/kg/injection, schedule: Q01DX005 (ip), vehicle: Klucel (hydroxypropylcellulose) (HPC)
  T/C: 104 % of control
dose: 64.0 mg/kg/injection, schedule: Q01DX005 (ip), vehicle: Klucel (hydroxypropylcellulose) (HPC)
  T/C: 104 % of control
dose: 128.0 mg/kg/injection, schedule: Q01DX005 (ip), vehicle: Klucel (hydroxypropylcellulose) (HPC)
  T/C: 95 % of control
dose: 256.0 mg/kg/injection, schedule: Q01DX005 (ip), vehicle: Klucel (hydroxypropylcellulose) (HPC)
  T/C: 92 % of control

## c1ccc([C@H]2CN3CCSC3=N2)cc1
dose: 5.0 mg/kg/injection, schedule: Q01DX009 (ip), vehicle: saline
  T/C: 113 % of control and 101 % of control and 102 % of control
dose: 10.0 mg/kg/injection, schedule: Q01DX005 (ip), vehicle: saline
  T/C: 105 % of control and 107 % of control
dose: 10.0 mg/kg/injection, schedule: Q01DX009 (ip), vehicle: saline
  T/C: 97 % of control and 100 % of control and 106 % of control
dose: 20.0 mg/kg/injection, schedule: Q01DX005 (ip), vehicle: saline
  T/C: 98 % of control and 102 % of control
dose: 20.0 mg/kg/injection, schedule: Q01DX009 (ip), vehicle: saline
  T/C: 113 % of control and 92 % of control and 103 % of control
dose: 40.0 mg/kg/injection, schedule: Q01DX005 (ip), vehicle: saline
  T/C: 97 % of control

## CN1CC[C@]23c4c5ccc(O)c4O[C@H]2C(=O)CC[C@H]3[C@H]1C5
dose: 3.12 mg/kg/injection, schedule: Q01DX005 (iv), vehicle: saline
  T/C: 106 % of control
dose: 6.25 mg/kg/injection, schedule: Q01DX005 (iv), vehicle: saline
  T/C: 104 % of control
dose: 12.5 mg/kg/injection, schedule: Q01DX005 (iv), vehicle: saline
  T/C: 95 % of control

## CN(C)CC(=O)c1ccc(O)c(O)c1
dose: 100.0 mg/kg/injection, schedule: Q01DX005 (ip), vehicle: saline
  T/C: 103 % of control
dose: 100.0 mg/kg/injection, schedule: Q01DX005 (ip), vehicle: suspension in saline
  T/C: 93 % of control
dose: 200.0 mg/kg/injection, schedule: Q01DX005 (ip), vehicle: saline
  T/C: 108 % of control
dose: 200.0 mg/kg/injection, schedule: Q01DX005 (ip), vehicle: suspension in saline
  T/C: 104 % of control
dose: 400.0 mg/kg/injection, schedule: Q01DX005 (ip), vehicle: saline
  T/C: 104 % of control
dose: 400.0 mg/kg/injection, schedule: Q01DX005 (ip), vehicle: suspension in saline
  T/C: 107 % of control

## NC(C/[N+]([O-])=N/O)C(=O)O (stereo not given)
dose: 7.02 mg/kg/injection, schedule: Q01DX009 (ip), vehicle: saline with Tween-80
  T/C: 90 % of control
dose: 7.02 mg/kg/injection, schedule: Q01DX009 (ip), vehicle: saline
  T/C: 110 % of control
dose: 14.06 mg/kg/injection, schedule: Q01DX009 (ip), vehicle: saline with Tween-80
  T/C: 98 % of control
dose: 14.06 mg/kg/injection, schedule: Q01DX009 (ip), vehicle: saline
  T/C: 99 % of control
dose: 28.12 mg/kg/injection, schedule: Q01DX009 (ip), vehicle: saline with Tween-80
  T/C: 95 % of control
dose: 28.12 mg/kg/injection, schedule: Q01DX009 (ip), vehicle: saline
  T/C: 108 % of control
dose: 56.25 mg/kg/injection, schedule: Q01DX009 (ip), vehicle: saline with Tween-80
  T/C: 106 % of control
dose: 56.25 mg/kg/injection, schedule: Q01DX009 (ip), vehicle: saline
  T/C: 108 % of control and 112 % of control
dose: 112.5 mg/kg/injection, schedule: Q01DX009 (ip), vehicle: saline with Tween-80
  T/C: 96 % of control

## CC(=O)NNC(=O)c1ccccn1
dose: 100.0 mg/kg/injection, schedule: Q01DX005 (ip), vehicle: Klucel (hydroxypropylcellulose) (HPC)
  T/C: 116 % of control and 100 % of control
dose: 200.0 mg/kg/injection, schedule: Q01DX005 (ip), vehicle: Klucel (hydroxypropylcellulose) (HPC)
  T/C: 113 % of control and 100 % of control

## CC1(C)N=C(N)N=C(N)N1c1ccc(OCC(=O)Nc2ccc(S(=O)(=O)F)cc2)c(Cl)c1
dose: 50.0 mg/kg/injection, schedule: Q04DX003 (ip), vehicle: saline
  T/C: 111 % of control
dose: 100.0 mg/kg/injection, schedule: Q04DX003 (ip), vehicle: saline
  T/C: 100 % of control
dose: 200.0 mg/kg/injection, schedule: Q04DX003 (ip), vehicle: saline
  T/C: 111 % of control

## CC/C(=C(/CC)c1ccc(O)cc1)c1ccc(O)cc1
dose: 8.0 mg/kg/injection, schedule: Q01DX009 (ip), vehicle: saline with Tween-80
  T/C: 105 % of control
dose: 8.0 mg/kg/injection, schedule: Q01DX009 (ip), vehicle: saline
  T/C: 104 % of control
dose: 16.0 mg/kg/injection, schedule: Q01DX009 (ip), vehicle: saline with Tween-80
  T/C: 106 % of control
dose: 16.0 mg/kg/injection, schedule: Q01DX009 (ip), vehicle: saline
  T/C: 107 % of control
dose: 32.0 mg/kg/injection, schedule: Q01DX009 (ip), vehicle: saline with Tween-80
  T/C: 107 % of control
dose: 32.0 mg/kg/injection, schedule: Q01DX009 (ip), vehicle: saline
  T/C: 158 % of control
dose: 64.0 mg/kg/injection, schedule: Q01DX009 (ip), vehicle: saline with Tween-80
  T/C: 100 % of control
dose: 64.0 mg/kg/injection, schedule: Q01DX009 (ip), vehicle: saline
  T/C: 116 % of control
dose: 128.0 mg/kg/injection, schedule: Q01DX009 (ip), vehicle: saline with Tween-80
  T/C: 115 % of control
dose: 128.0 mg/kg/injection, schedule: Q01DX009 (ip), vehicle: saline
  T/C: 90 % of control
dose: 256.0 mg/kg/injection, schedule: Q01DX009 (ip), vehicle: saline with Tween-80
  T/C: 106 % of control
dose: 256.0 mg/kg/injection, schedule: Q01DX009 (ip), vehicle: saline
  T/C: 88 % of control
dose: 512.0 mg/kg/injection, schedule: Q01DX009 (ip), vehicle: saline with Tween-80
  T/C: 86 % of control

## CC1(C)N=C(N)N=C(N)N1c1ccc(CCC(=O)Nc2ccc(S(=O)(=O)F)cc2)c(Cl)c1
dose: 6.25 mg/kg/injection, schedule: Q01DX009 (ip), vehicle: saline
  T/C: 100 % of control
dose: 12.5 mg/kg/injection, schedule: Q01DX009 (ip), vehicle: saline
  T/C: 111 % of control
dose: 25.0 mg/kg/injection, schedule: Q01DX009 (ip), vehicle: saline
  T/C: 105 % of control
dose: 50.0 mg/kg/injection, schedule: Q01DX009 (ip), vehicle: saline
  T/C: 105 % of control
